{"source": "patent US9533002B2", "about": "“Methods of treating a metabolic syndrome by modulating heat shock protein (HSP) 90-β” (Berg LLC, priority 2012, dated 2017)", "key": {"HSMM myotubes [1]": {"system": "HSMM myotubes", "experiment": "Seahorse bioenergetic profiling of myotubes (OCR; oligomycin, CCCP, rotenone)", "assay_type": "cell-based, human", "protocol": "HSMM myotubes cultured in wells in a Seahorse® assay cartridge were differentiated with 2% horse serum myocyte differentiation media for 7 days. Cells were transfected with either negative control scrambled siRNA or siHsp siRNA with TKO transfection reagents at concentration of 50 nM following vendor instructions as described above (Mirus Bio®). After 48 hours transfection, cells were subjected to Seahorse® bioenergetics analysis using drugs to modulate cell energetics, i.e., oligomycin, carbonyl cyanide-M-chlorophenyl hydrazine (CCCP), and rotenone. Oligomycin inhibits mitochondrial ATP synthase (complex V of ET chain) and allows analysis of glycolytic capacity. CCCP is an uncoupler that […] the mitochondrial membrane, thereby inducing maximum compensatory oxygen consumption, and allows analysis of uncoupled OCR. Rotenone inhibits NADH dehydrogenase (complex I of ET chain) and allows analysis of non-mitochondrial OCR.\nTo perform the assay, each well of the Seahorse® assay cartridge was washed with 1 ml running media. 500 ul of running media was added to each well and the plate was placed in an 37° C. (CO2 free) incubator. Drugs to modulate mitochondrial activity were prepared at a 10× (10 uM) concentration, so that after addition to the cartridge, the final concentration would be 1× (1 μM). Oligomycin (50 ul), CCCP (55 ul) and rotenone (55 ul) were added to ports A, B, and C of the cartridge and the cartridge was placed back in the incubator. The Seahorse® assay wizard was opened and the cycle parameters and times were setup. The Seahorse® assay was then performed using the instrument. After the Seahorse® assay, cells were lysed with 50 ul 450 mM NaOH and then neutralized with 5 ul Tris 6.8. DNA lysates were subjected to spectrophotometric analysis at OD260 using BioTek® Take3 DNA plate reader. The data were normalized with DNA contents of the cells.\nHSMM myotubes were transfected with siRNA of either control or siHsp90β for 48 hours as described above, then subjected to Seahorse® bioenergetic profiling (XF24 Analyzer) using different mitochondrial drugs including oligomycin, CCCP, and rotenone; and monitored changes on oxygen consumption rate (OCR) that reflects either basal or maximum mitochondrial oxidative capacity. The results were normalized by DNA content."}, "HSMM myotubes [2]": {"system": "HSMM myotubes", "experiment": "Insulin signaling in HSMM myotubes: western blot of total and phosphorylated Akt, Erk, GSK3β", "assay_type": "cell-based, human", "conditions": "myotubes treated with inhibitor, then insulin stimulation", "protocol": "Human skeletal muscle myoblasts (HSMM) were procured from PromoCell and were cultured in growth media recommended by the vendor. Confluent cultures were replaced with differentiation media (DMEM, 2% horse serum, pyruvate and HEPES) and cells allowed to differentiate for 7 to 10 days.\nHuman HSMM myotubes cells that were plated in 12 well plates the previous week were used. The media was aspirated and fresh media with appropriate dilutions of the NC and H3 siRNA for Hsp90 knockdown were added such that the final concentration in the wells of the plate was 100 nM. Mirus TKO transfection reagent was used for transfecting the cells. The plate was then incubated at 37° C. overnight.\nThe media was aspirated and the cells were washed off twice—first with warm PBS and second with 0.1% BSA containing growth media. The cells were then serum starved for 2-3 hours in 0.1% differentiation media containing the appropriate inhibitors at 37° C. followed by insulin stimulation for 5 minutes (0, 10, and 100 nM insulin).\nThe wells were then washed once with PBS and harvested into 100 μl of RIPA buffer containing protease and phosphatase inhibitors. The plate was placed on ice and, using a cell scraper, the cells were scraped from the plate. […]\nProtein content was estimated by BCA assay and samples were prepared for gel electrophoresis and western blotting as described in subsequent sections. The total volume required to load 10 μg of total protein was calculated. […]\nVisualization of proteins and quantification of western blots was performed as follows. […]\nEach strip of membrane was taken out arranged in a clean flat surface. […] The bands were quantified using the BIORAD® software.\nHSMM myotubes were sequentially (1) transfected with 3 different siRNAs targeting HSP90AB1 for 48 hours, (2) serum starved for 3 hours, and (3) subjected to stimulation of different concentrations of insulin (0, 10, 100 nM). Signaling events downstream of insulin stimulation were assessed by western blotting for levels of total and phosphorylated Akt, Erk, and GSK3β. […]"}, "[3]": {"conditions": "myotubes treated at different concentrations"}}, "note": "Entries after “also recorded” stand apart in the source; their conditions may differ."}
{"molecule": "CCc1cc(-c2n[nH]c(C)c2-c2ccc3c(c2)OCCO3)c(O)cc1O", "note": "[CCT018159]", "values": [{"measurement": "CCCP induced uncoupling response on mitochondrial metabolism", "setting": "HSMM myotubes [1]; 1 μM, 3 μM, and 10 μM (FIG. 10 legend)", "result": "did not have a significant effect"}, {"measurement": "CCCP induced OCR", "setting": "HSMM myotubes [1]; 10 uM", "result": "greater suppression"}, {"measurement": "uncoupled OCR", "setting": "HSMM myotubes [1]; lower concentration, 1 μM", "result": "increased"}, {"measurement": "basal OCR", "setting": "HSMM myotubes [1]; [3]", "result": "no observed change"}, {"measurement": "uncoupled OCR (CCCP induced)", "setting": "HSMM myotubes [1]; [3]", "result": "decreased in a concentration dependent manner"}, {"measurement": "level of pERK", "setting": "HSMM myotubes [2]", "result": "no change; also recorded: No significant changes"}, {"measurement": "level of pGSK3β", "setting": "HSMM myotubes [2]", "result": "no change; also recorded: No significant changes"}, {"measurement": "insulin stimulated phosphorylation of Akt (phospho-AKT)", "setting": "HSMM myotubes [2]; higher concentration, 10 uM, vs untreated cultures", "result": "significantly enhanced; also recorded: increase"}]}
